Results published in patent publication US20240150377A1, “MODULATORS OF CYSTIC FIBROSIS TRANSMEMBRANE CONDUCTANCE REGULATOR” (VERTEX PHARMACEUTICALS INCORPORATED, priority 2020, published 2024).
Like-named read-outs stand apart in the source and are kept apart here. Values belong to the compound of their own block, whether it stands above or below them.

Target: T1, CFTR (Homo sapiens, UniProt P13569, DEL508-508)
T1 construct: endogenous in cells; host or cells: primary human bronchial epithelial cells from CF subjects (F508del/MF-HBE), differentiated at air-liquid interface
Experiment: HBE assay: Ussing chamber assay of CFTR-mediated short-circuit currents
Assay type: cell-based
How it was run: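 CFTR-mediated Isc (μA/cm²) equals the peak response to apical 20 μM forskolin minus the residual after a 20 μM each BPO/GlyH-101/CFTR inhibitor 172 cocktail, recorded in Ussing chambers at Vhold 0 mV, 37 °C, pH 7.4, with 30 μM apical amiloride. Cells were F508del/MF HBE cultures preincubated 18-24 h with corrector (concentration range or 10 μM) plus 1 μM ivacaftor in 20% human serum.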

[1] = Table 13, at 10 μM, read-out: HBE Activity at 10 μM (%)
[2] = Table 10, read-out: HBE Max activity (%)
[3] = HBE assay, 10 μM, read-out: HBE Activity at 10 μM (%)
[4] = HBE assay, read-out: HBE Max activity (%)
[5] = Table 12, read-out: HBE Max Activity (%)
[6] = Table 10, at 10 μM, read-out: HBE activity at 10 (μM) (%)
[7] = Table 11, read-out: HBE Max Activity (%)

T1 sequence (P13569 with tags, fused parts or gaps DEL508-508): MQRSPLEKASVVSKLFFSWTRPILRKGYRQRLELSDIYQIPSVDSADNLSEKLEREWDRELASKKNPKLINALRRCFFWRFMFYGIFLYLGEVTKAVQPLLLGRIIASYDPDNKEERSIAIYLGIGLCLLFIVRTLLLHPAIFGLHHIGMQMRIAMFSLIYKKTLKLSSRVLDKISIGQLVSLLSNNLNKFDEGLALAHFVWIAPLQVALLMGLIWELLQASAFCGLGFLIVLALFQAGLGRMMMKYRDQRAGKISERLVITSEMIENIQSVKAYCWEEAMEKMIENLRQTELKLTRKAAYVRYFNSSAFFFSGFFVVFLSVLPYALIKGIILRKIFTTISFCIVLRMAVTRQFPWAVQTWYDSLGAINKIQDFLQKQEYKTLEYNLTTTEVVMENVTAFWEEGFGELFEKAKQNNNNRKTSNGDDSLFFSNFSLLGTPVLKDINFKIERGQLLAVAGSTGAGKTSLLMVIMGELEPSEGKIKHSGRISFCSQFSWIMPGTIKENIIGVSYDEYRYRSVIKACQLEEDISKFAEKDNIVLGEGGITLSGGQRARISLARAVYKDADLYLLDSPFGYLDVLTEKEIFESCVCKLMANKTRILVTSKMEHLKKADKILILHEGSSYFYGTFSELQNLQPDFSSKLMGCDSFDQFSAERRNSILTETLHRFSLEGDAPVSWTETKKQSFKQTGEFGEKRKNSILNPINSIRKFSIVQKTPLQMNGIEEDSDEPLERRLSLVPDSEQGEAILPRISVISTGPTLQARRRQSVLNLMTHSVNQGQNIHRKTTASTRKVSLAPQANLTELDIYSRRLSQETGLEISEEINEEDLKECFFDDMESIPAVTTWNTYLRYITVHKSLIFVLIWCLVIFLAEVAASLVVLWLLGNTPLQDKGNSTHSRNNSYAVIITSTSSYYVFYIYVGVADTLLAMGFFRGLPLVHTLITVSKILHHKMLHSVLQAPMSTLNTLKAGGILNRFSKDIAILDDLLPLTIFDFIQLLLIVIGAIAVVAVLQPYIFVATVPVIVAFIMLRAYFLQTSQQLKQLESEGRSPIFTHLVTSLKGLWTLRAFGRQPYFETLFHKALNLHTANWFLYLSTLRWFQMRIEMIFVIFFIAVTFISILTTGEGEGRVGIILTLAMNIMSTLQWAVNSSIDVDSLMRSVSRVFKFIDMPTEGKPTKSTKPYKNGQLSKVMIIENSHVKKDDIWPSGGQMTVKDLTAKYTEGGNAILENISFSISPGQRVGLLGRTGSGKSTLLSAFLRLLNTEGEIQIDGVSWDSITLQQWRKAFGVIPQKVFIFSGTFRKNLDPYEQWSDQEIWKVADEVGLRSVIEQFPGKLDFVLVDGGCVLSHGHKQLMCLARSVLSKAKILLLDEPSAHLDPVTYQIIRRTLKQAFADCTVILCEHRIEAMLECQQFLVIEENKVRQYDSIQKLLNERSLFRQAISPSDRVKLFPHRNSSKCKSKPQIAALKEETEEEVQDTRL

activation at 10 µM [1]: > 600%
Structure (SMILES): Cc1cccc(C)c1-c1cc2nc(n1)NS(=O)(=O)c1cccc(c1)C(=O)N(CC1(NC(=O)OC(C)(C)C)CC3(CCC3)C1)[C@H](CC(C)(C)C)CO2 [Compound 999]

Emax [2]: > 60%
Structure (SMILES): Cc1cccc(C)c1-c1cc2nc(n1)NS(=O)(=O)c1cccc(c1)C(=O)N(Cc1cccc(NCC(C)(C)C)n1)[C@H](CC(C)(C)C)CO2 [Compound 471]

EC50 (Table 10, read-out: HBE EC50): < 1 µM | Emax [2]: > 60%
Structure (SMILES): Cc1cccc(C)c1-c1cc2nc(n1)NS(=O)(=O)c1cccc(c1)C(=O)N(C[C@H]1CC[C@@H](N3CCCC3=O)CC1)[C@H](CC(C)(C)C)CO2 [Compound 910]

activation at 10 µM [3]: > 60% | EC50 (HBE assay, read-out: HBE EC50): < 1 µM | Emax [4]: > 60%
Structure (SMILES): Cc1cccc(C)c1-c1cc2nc(n1)NS(=O)(=O)c1cccc(c1)C(=O)N(Cc1ncc(N3CC(C)(F)C3)cn1)[C@H](CC(C)(C)C)CO2 [Compound 1503]

EC50 (Table 12, read-out: HBE EC50): < 1 µM | Emax [5]: > 60%
Structure (SMILES): Cc1cccc(C)c1-c1cc2cc(n1)NS(=O)(=O)c1cccc(c1)C(=O)N(Cc1ncc(N3CCC(C)(C)C3)cn1)[C@H](CC(C)(C)C)CO2 [Compound 524]

EC50 (Table 12, read-out: HBE EC50): < 1 µM | Emax [5]: > 60%
Structure (SMILES): Cc1cccc(C)c1-c1cc2nc(n1)NS(=O)(=O)c1cccc(c1)C(=O)N(Cc1cncc(N(C)C(C)C)n1)[C@H](CC(C)(C)C)CO2 [Compound 881]

EC50 (HBE assay, read-out: HBE EC50): < 1 µM | Emax [4]: > 60%
Structure (SMILES): Cc1cccc(C)c1-c1cc2nc(n1)NS(=O)(=O)c1cccc(c1)C(=O)N(Cc1ncc(OCC3(C)COC3)cn1)[C@H](CC(C)(C)C)CO2 [Compound 1360]

activation at 10 µM [3]: > 60%
Structure (SMILES): Cc1cccc(C)c1-c1cc2nc(n1)NS(=O)(=O)c1cccc(c1)C(=O)N(Cc1ncc(OC(C)C)cn1)C(C(C)C(C)C)CO2 (stereo not drawn) [Compound 1466]

EC50 (Table 11, read-out: HBE EC50): < 1 µM | Emax [7]: > 60%
Structure (SMILES): Cc1cccc(C)c1-c1cc2nc(n1)NS(=O)(=O)c1cccc(c1)C(=O)N(CC1CCOCC1)[C@H](CC(C)(C)C)CO2 [Compound 820]

EC50 (Table 11, read-out: HBE EC50): < 1 µM | Emax [7]: > 60%
Structure (SMILES): Cc1cccc(C)c1-c1cc2nc(n1)NS(=O)(=O)c1cccc(c1)C(=O)N(CCc1ccc(N3CCC(C)(C)C3)nc1)[C@H](CC(C)(C)C)CO2 [Compound 473]

activation at 10 µM [6]: > 60% | EC50 (Table 10, read-out: HBE EC50): < 1 µM | Emax [2]: > 60%
Structure (SMILES): Cc1cccc(C)c1-c1cc2nc(n1)NS(=O)(=O)c1cccc(c1)C(=O)N(Cc1cccc(N(C)C)n1)[C@H](CC(C)(C)C)CO2 [Compound 491]

Continued, compound first:

Structure (SMILES): Cc1cccc(C)c1-c1cc2nc(n1)NS(=O)(=O)c1cccc(c1)C(=O)N(Cc1nccc(N(C)C3CC4(CCC4)C3)n1)[C@H](CC(C)(C)C)CO2 [Compound 445]
EC50 (Table 12, read-out: HBE EC50): < 1 µM | Emax [5]: > 60%

Structure (SMILES): Cc1cccc(C)c1-c1cc2nc(n1)NS(=O)(=O)c1cccc(c1)C(=O)N(CC1CC(N3C[C@@H](C)O[C@@H](C)C3)C1)[C@H](CC(C)(C)C)CO2 (single isomer, unassigned) [Compound 63]
EC50 (read-out: HBE EC50, Table 10): < 1 µM

Structure (SMILES): Cc1cccc(C)c1-c1cc2nc(n1)NS(=O)(=O)c1cccc(c1)C(=O)N(Cc1cccc(Oc3ccccc3)n1)[C@H](CC(C)(C)C)CO2 [Compound 126, (11R)-6-(2,6-Dimethylphenyl)-11-(2,2-dimethylpropyl)-2,2-dioxo-12-[(6-phenoxy-2-pyridyl)methyl]-9-oxa-2λ^6-thia-3,5,12,19-tetrazatricyclo[12.3.1.14,8]nonadeca-1(18),4(19),5,7,14,16-hexaen-13-one]
EC50 (HBE EC50 (μM), Table 10): < 1 µM | Emax (read-out: HBE Max activity (%)): > 60%

Structure (SMILES): Cc1cccc(C)c1-c1cc2nc(n1)NS(=O)(=O)c1cccc(c1)C(=O)N(CC(=O)N1CCC(N(C)C)CC1)[C@H](CC(C)(C)C)CO2 [Compound 186]
activation at 10 µM [1]: > 600%

Structure (SMILES): Cc1ccnc(CNC(=O)CN2C(=O)c3cccc(c3)S(=O)(=O)Nc3nc(cc(-c4c(C)cccc4C)n3)OC[C@H]2CC(C)(C)C)c1 [Compound 218]
activation at 10 µM (Table 12, at 10 μM, read-out: HBE Activity at 10 μM (%)): > 600%

Structure (SMILES): Cc1cccc(C)c1-c1cc2nc(n1)NS(=O)(=O)c1cccc(c1)C(=O)N(C(C)c1ccc(-c3c(C)n[nH]c3C)cc1)[C@H](CC(C)(C)C)CO2 (stereo partly drawn) [Compound 294]
activation at 10 µM [6]: > 60%

Structure (SMILES): Cc1cccc(C)c1-c1cc2nc(n1)NS(=O)(=O)c1cccc(c1)C(=O)N(Cc1ccc(N3CCC(C(C)(C)C)CC3)cn1)[C@H](CC(C)(C)C)CO2 [Compound 258]
activation at 10 µM [1]: > 600%
